pEC50: −log10 of the molar value.

This test deals with Bmi-1 protein. Nature of the test: Sandwich ELISA Assay: Bmi-1 protein level in HT-1080 cells treated with test compounds. Format: cell-based. The method, then:
Cell Seeding and Compound Treatment (Day 1):
HT-1080 cells were seeded at 8000 cells/well (50 μL) in 96-well tissue culture plates. After the cells became adherent (3-4 hours), 2× diluted stocks of test compounds in 50 μL DMEM containing 1% DMSO (final DMSO concentration was 0.5%) were added and the plates were incubated at 37° C. under 5% CO2 for 40-48 hours.
ELISA Plate First Antibody Preparation (Day 2):
The First Antibody (Millipore Mouse, monoclonal to mouse Bmi-1, clone F6, catalog #05-637) diluted to 2 μg/mL in PBS was added (100 μL) to each well of a Nunc MaxiSorp 96-well ELISA plate. The plate was covered with a plate seal and allowed to stand overnight.
Cell Lysate Preparation (Day 3):
Fresh Lysis buffer (1×) was prepared on the day of the assay as follows: 1 mM EDTA, 150 mM NaCl, 0.5% Triton-X 100, 10 mM NaF, 20 mM B-Glycerophosphate, 1 mM DTT (in PBS, pH 7.2-7.4) and HALT protease inhibitor cocktail (1×) (Pierce #78410).
Lysis Buffer (1×, 40 μL) was added to each well and the plate was shaken for 5-10 minutes on an orbital shaker to allow cell lysis, then diluent (1% BSA in PBS in 0.5% NP40) (100 μL) was added to each well.
A standard curve was prepared at the following Bmi-1 concentrations: 8000, 4000, 2000, 1000, 500, 250, 125 and 0 pg/mL. The Bmi-1 Recombinant Protein Standard (Novus Biologicals PCGF4 Recombinant Protein (P01), catalog # H00000648-P01) used to prepare the standard curve was stored at −80° C. On first thaw, the Recombinant Protein Standard was diluted to 10 μg/μL in Blocking Buffer (1% BSA in PBS; BSA: Fisher Scientific Catalog #1600-100). Aliquots were taken and refrozen at −80° C. The aliquots may be kept at 4° C. and reused after first thaw, but only within 1-2 weeks. The Recombinant Protein Standard contains a GST-fusion tag that appears at approximately 70 Kda on Western Blot.
The prepared ELISA plate was washed 3× with Wash Buffer (0.05% Tween-20 in PBS). The final wash was removed from the plate and the plate was blotted dry. Blocking Buffer (300 μL) (1% BSA in PBS) was added to each well. The plate was covered with a plate seal and incubated at room temperature for 1 hour. The blocked plate was washed 3× with Wash Buffer, then the final wash was removed and the plate was blotted dry. The previously prepared samples and standards were added (100 μL/well) and the plate was covered with a plate seal and incubated at 4° C. overnight.
The prepared ELISA plate was removed from incubation and allowed to stand at room temperature for 30 minutes, then washed and blotted dry. The Second Antibody (Cell Signaling Rabbit anti-Bmi-1, Cat# 2830) diluted to 1:600 in Blocking Buffer was added (100 μL) to each well, except as needed for background control wells. The plate was covered with a plate seal and incubated for 1.5 hrs at room temperature.
The ELISA plate was washed and blotted dry as previously described. The Third Antibody (Cell Signaling HRP conjugated anti-rabbit IgG (CellSignaling, Cat#:7074) diluted to 1:300 in Blocking Buffer was added (100 μL) to each well, except as needed for background control wells. The plate was incubated for 1 hr at room temperature.
The plate was washed and blotted dry, then a previously prepared TMB substrate (TMB substrate kit, Pierce catalog #34021) (prepared by mixing kit reagents 1:1) (100 μL) was added per well. The plate was incubated for 20-30 minutes at room temperature in the dark, then Stop Solution (2 M sulfuric acid in water) (50 μL) was added per well. The plates were read at OD450 (experimental) and OD570 (reference).
As to `Cc1nc2c(F)cccc2n1-c1nc(N)nc(Nc2ccc(C(F)(F)F)cc2)n1` [Cpd 95, 6-(4-fluoro-2-methyl-1H-benzimidazol-1-yl)-N-[4-(trifluoromethyl)phenyl]-1,3,5-triazine-2,4-diamine], the negative logarithm of the EC50 (pEC50) – broadly, the negative decadic logarithm of the EC50, by convention in mol/L – was 5.52 to 7.00.
The value for `Cc1nc2ncc(Cl)cc2n1-c1nc(N)nc(Nc2ccc(OC(F)F)cc2)n1` [Cpd 40, 6-(6-chloro-2-methyl-1H-imidazo[4,5-b]pyridin-1-yl)-N-[4-(difluoromethoxy)phenyl]-1,3,5-triazine-2,4-diamine] was 7.00 to 8.00; that for `Cc1cccc(Nc2nc(N)nc(-n3c(C)nc4ccccc43)n2)c1` [Cpd 149, 6-(2-methyl-1H-benzimidazol-1-yl)-N-(3-methylphenyl)-1,3,5-triazine-2,4-diamine] was 5.52 to 7.00.
The figure for `CCc1nc2ccccc2n1-c1nc(N)nc(Nc2ccc(Cl)c(F)c2)n1` [Cpd 198, N-(4-chloro-3-fluorophenyl)-6-(2-ethyl-1H-benzimidazol-1-yl)-1,3,5-triazine-2,4-diamine] is 7.00 to 8.00; for `Cc1nc2ncc(Cl)cc2n1-c1nc(N)nc(Nc2ccc(C(F)(F)F)cc2)n1` [Cpd 33, 6-(6-chloro-2-methyl-1H-imidazo[4,5-b]pyridin-1-yl)-N-[4-(trifluoromethyl)phenyl]-1,3,5-triazine-2,4-diamine] it is 7.00 to 8.00.
The figure for `Cc1nc2ccccc2n1-c1cnnc(Nc2ccc(C(F)(F)F)cc2)n1` [Cpd 112, 5-(2-methyl-1H-benzimidazol-1-yl)-N-[4-(trifluoromethyl)phenyl]-1,2,4-triazin-3-amine] is 5.52 to 7.00; for `Nc1nc(Nc2ccc(OC(F)F)cc2)nc(-n2c(C3CC3)nc3cc(F)c(F)cc32)n1` [Cpd 83, 6-(2-cyclopropyl-5,6-difluoro-1H-benzimidazol-1-yl)-N-[4-(difluoromethoxy)phenyl]-1,3,5-triazine-2,4-diamine] it is 7.00 to 8.00.
Compound `CCc1nc2ccccc2n1-c1nc(N)nc(Nc2cccc(C)c2)n1` [Cpd 161, 6-(2-ethyl-1H-benzimidazol-1-yl)-N-(3-methylphenyl)-1,3,5-triazine-2,4-diamine] gave a negative logarithm of the EC50 (pEC50) of 5.52 to 7.00.
The figure for `COc1ccc(Nc2nc(N)nc(-n3c(C)nc4ccccc43)n2)cc1` [Cpd 147, N-(4-methoxyphenyl)-6-(2-methyl-1H-benzimidazol-1-yl)-1,3,5-triazine-2,4-diamine] is 8.00 to 9.00; for `Nc1nc(Nc2ccc(Cl)cc2)nc(-n2c(C3CC3)nc3ccccc32)n1` [Cpd 157, N-(4-chlorophenyl)-6-(2-cyclopropyl-1H-benzimidazol-1-yl)-1,3,5-triazine-2,4-diamine] it is 7.00 to 8.00; for `Nc1nc(Nc2ccc(Br)cc2)nc(-n2c(C3CC3)nc3cc(F)ccc32)n1` [Cpd 222, N-(4-bromophenyl)-6-(2-cyclopropyl-5-fluoro-1H-benzimidazol-1-yl)-1,3,5-triazine-2,4-diamine] it is 7.00 to 8.00.
The figure for `Nc1nc(Nc2ccc(Br)cc2)nc(-n2c(C3CC3)nc3c(F)cccc32)n1` [Cpd 220, N-(4-bromophenyl)-6-(2-cyclopropyl-4-fluoro-1H-benzimidazol-1-yl)-1,3,5-triazine-2,4-diamine] is 7.00 to 8.00; for `Nc1nc(Nc2ccc(OC(F)F)cc2)nc(-n2c(C3CC3)nc3ncc(F)cc32)n1` [Cpd 77, 6-(2-cyclopropyl-6-fluoro-1H-imidazo[4,5-b]pyridin-1-yl)-N-[4-(difluoromethoxy)phenyl]-1,3,5-triazine-2,4-diamine] it is 7.00 to 8.00.
The figure for `CCc1nc2ncc(F)cc2n1-c1nc(N)nc(Nc2ccc(C(F)(F)F)cc2)n1` [Cpd 82, 6-(2-ethyl-6-fluoro-1H-imidazo[4,5-b]pyridin-1-yl)-N-[4-(trifluoromethyl)phenyl]-1,3,5-triazine-2,4-diamine] is 7.00 to 8.00; for `Cc1ccc(Nc2nncc(-n3c(C)nc4ccccc43)n2)cc1` [Cpd 217, 5-(2-methyl-1H-benzimidazol-1-yl)-N-(4-methylphenyl)-1,2,4-triazin-3-amine] it is 8.00 to 9.00.

These data come from US9975878B2, “Substituted triazine BMI-1 inhibitors” (PTC Therapeutics, Inc., priority 2013, dated 2018).
